Source: patent publication US20260256712A1, “COMPOUNDS FOR INHIBITING GRAM-POSITIVE BACTERIA” (priority 2022, published 2026)
“Also recorded” adds a separate entry of the source.

Key:
[1] = test system: ternary complex between Cy5-EF-Tu:GTP and Cy3-Phe-tRNAPhe; test: EF-Tu:tRNA FRET assay (qHTS and secondary FRET assay); assay type: biochemical, E. coli; settings: online and offline LOPAC testing
Description: Upon formation of functional ternary complex between Cy5-EF-Tu:GTP and Cy3-Phe-tRNAPhe, fluorescence energy transfer (FRET) occurs between Cy3 and Cy5 fluorophores located within Förster radius (~17 Å) when Cy3 is excited at 532 nm, and as a result the complex emits light at 665 nm. Presence of inhibitors of the ternary complex prevents complex from forming, thereby reducing fluorescence intensity at 665 nm.
Inhibitors of EF-Tu:tRNA translation were identified using this in vitro FRET system. Quantitative high throughput screening (qHTS) was performed on the LOPAC library containing 1,280 chemicals to identify potential leads for antibiotic development. […]
Equipment: EnVision 2104 Multilabel Plate Reader (PerkinElmer) with excitation optical filter 2100-5050 Bodipy TMR FR 531 nm and emission optical filter 2100-5770 Cy5 685 nm. […]
All solutions were prepared fresh in assay buffer consisting of 70 mM HEPES-KOH (pH7.6), 52 mM ammonium acetate, 8 mM magnesium chloride, 30 mM potassium chloride, and 2.6% glycerol. […] FRET was then detected using 1) a ViewLux high-throughput microplate imager (PerkinElmer) equipped with Ex: 525/20 and Em: 671/8 filters; or 2) an Envision Multimode plate reader (PerkinElmer) equipped with Ex: 530/25 and Em: 665 filters. Assay performance, as calculated by Z′ factor as described by Zhang et al (J Biomol Screen, 1999), was favorable for the Envision plate reader. […]

E. coli strains = test: Bacterial growth assay, E. coli; assay type: cell-based, Escherichia coli
Protocol: (§1) The culture was diluted again 1/500 in 1 ml of fresh media with presence of increasing concentrations of tested compound or 1% DMSO as a control.

[2] = test system: USA300 methicillin-resistant Staphylococcus aureus (MRSA); assay type: in vivo, C57Bl/6J mice; settings: for bacterial counts (punch biopsies) / dermonecrosis: topical ointment daily, 0.2 mg drug; for dermonecrosis: first experiment
E. coli DH5α = test: Zone inhibition assay (ZIA), E. coli
[3] = Cytotoxicity assay (CellTiter 96 AQueous One Solution); assay type: cell-based; settings: African green monkey, Vero cells, read-out: Cytotoxicity CC 50
Protocol: Cytotoxicity assay. Compounds were tested for cytotoxicity against mammalian Vero cells using the CellTiter 96 AQueous One Solution Assay kit (Promega). Vero cells were seeded in 96-well plates at a density of 2×10^4 cells per well, and the plates were incubated for 4 h at 37° C. to allow attachments of the Vero cells. Chemical compounds being tested were then added to the wells starting from a final concentration of 50 μg/mL and making 12 1:2 dilutions. Cells were incubated for 72 h at 37° C., after which 20 μL of freshly prepared MTS:PMS reagents was added to each well. The plates were incubated for 2 h and then read at an absorbance of 490 nm.

[4] = Intraperitoneal administration in mice; assay type: in vivo; settings: 10 mg/ml
B. subtilis IS-75 = test: Bacterial growth / viable count assay, B. subtilis; assay type: cell-based, Bacillus subtilis
Protocol: as §1

[5] = test system: Cy3/Cy5-labelled oligonucleotides; test: Counterscreen assay excluding quenching (Cy3/Cy5 oligonucleotide FRET); settings: 50 nM of each oligonucleotide
Protocol: Oligonucleotides were purchased from Integrated DNA Technologies:
In the assay, a 50 nM final concentration of each oligonucleotide was used.
Incubation buffer: 70 mM HEPES-KOH (pH 7.6), 52 mM ammonium acetate, 8 mM magnesium chloride, 30 mM potassium chloride and 2.6% glycerol. A 96-well black, clear bottom microplate was used and read the plate was read using EnVision multilabel plate reader (PerkinElmer) having the same optical filters and parameters as described in Example 2.

Pseudomonas aeruginosa = test: Bacterial growth assay, Pseudomonas aeruginosa; assay type: cell-based
Protocol: as §1

Gram-negative bacteria = test: Drug susceptibility assay (MIC), Gram-negative bacteria; assay type: cell-based
B. subtilis 1S-75 = test: Zone inhibition assay (ZIA), B. subtilis; assay type: cell-based, Bacillus subtilis
mycobacteria = test: Drug susceptibility assay (MIC), mycobacteria; assay type: cell-based
[6] = test system: Staphylococcus aureus strains including MRSA; test: Drug susceptibility assay (MIC), Staphylococcus aureus; assay type: cell-based; settings: including the MRSA strain
Protocol: Drug susceptibility assays. Experiments to determine the minimum inhibitory concentration (MIC) of RR-THC for bacterial growth were performed in 96-well microtiter plates. A DMSO stock solution of each compound was added to the first column and serially diluted across the columns of the plate. The last column of the plate contained no drug and served as a no-drug control. Overnight cultures of the bacterium being tested (MRSA ATCC 43300, […], or the aforementioned VRSA/VISA strains) were diluted 1000-fold, and 100 μL of the diluted culture (appr. 2×10^3 cells) was used as an inoculum in each well. MICs were determined by visual inspection looking for a pellet after 18 h incubation at 37° C. and centrifugation.

| Structure (SMILES) | effect on Cy5-EF-Tu acceptor fluorescence emission in the FRET assay [1] | inhibition of bacterial growth, E. coli strains (E. coli strains) | dermonecrosis, repetition of the experiment ([2]; compared to controls but not compared to the mupirocin treated group) | bacterial counts (punch biopsies) [2] | dermonecrosis [2] | zone inhibition result in words, E. coli (E. coli DH5α) | CC50 at 72 h [3] [µM] | toxicity upon intraperitoneal administration [4] | colony formation of B. subtilis on agar plate (B. subtilis IS-75; 10 μM added to the medium in an agar plate) | inhibition at 5 µM (B. subtilis IS-75; Bacillus subtilis, IS75, 5 μM, cells grown in test tubes) [%] | change of FRET in quenching counterscreen [5] | inhibition of bacterial growth, Pseudomonas aeruginosa (Pseudomonas aeruginosa) | sensitivity in MIC assay, Gram-negative bacteria (Gram-negative bacteria) | zone inhibition result in words, gram-positive bacteria (B. subtilis) (B. subtilis 1S-75) | sensitivity in MIC assay, mycobacteria (mycobacteria) | sensitivity in MIC assay, three Staphylococcus aureus strains [6] |
| --- | --- | --- | --- | --- | --- | --- | --- | --- | --- | --- | --- | --- | --- | --- | --- | --- |
| CC[C@@H]1Cc2cc(O)ccc2C2=C1c1ccc(O)cc1C[C@H]2CC [RR-THC, (R,R)-tetrahydrochrysene] | significantly diminished; also recorded: effectively decreased Cy5-EF-Tu acceptor fluorescence emission; also recorded: highly active in both methods | No inhibition | statistically significant decrease in dermonecrosis | no difference apparent | inhibiting dermonecrosis; also recorded: trend to reduced dermonecrosis | did not inhibit | > 50 | a level of toxicity observed | colonies did not form | ~97 | did not significantly change FRET | No inhibition | not sensitive | clear zone indicative of inhibition of cell growth | not sensitive | highly sensitive |
| C/C(=C\C(=O)OCCCCCCCCC(=O)O)C[C@@H]1OC[C@H](C[C@@H]2O[C@H]2[C@@H](C)[C@H](C)O)[C@@H](O)[C@H]1O [mupirocin, reference compound] |  |  |  | trend to reduction | no decrease |  |  |  |  |  |  |  |  |  |  |  |
